Reference: publication PMC3302888, “Small-Animal PET Imaging of Amyloid-Beta Plaques with [^11C]PiB and Its Multi-Modal Validation in an APP/PS1 Mouse Model of Alzheimer's Disease” (PLoS ONE, 2012)
“And” between values parts separate entries of the source, which are not always exact repeats. Equal values may be shown once. Read-outs that look alike come from different tables or passages of the source.

Legend:
[1] = system: postmortem human brain tissue homogenate (temporal cortex); test: Radioligand saturation binding assay with [^3H]PiB, human brain homogenate
Method: (§1) The frozen mouse hemi-forebrains (50 mg/ml) and human brain samples (100 mg/ml) for the radioligand binding assay were first prepared in tissue homogenization buffer (20 mM Tris base, 1 mM EDTA, 1 mM EGTA, cOmplete Protease Inhibitor Cocktail (Roche Applied Science, Mannheim, Germany)) using a 30 ml hand glass homogenizer (Dounce type, tight fit) (Sartorius Stedim Biotech, Göttingen, Germany) which was used for subsequent ELISA analysis. The stocks were then supplemented with 250 mM sucrose and stored at −70°C for later tracer binding analysis. All other tissue samples were processed for ELISA as reported by Willuweit et al.
(§2) All brain homogenates were diluted in PBE buffer (10 mM dibasic sodium phosphate, 1 mM EDTA, 10% EtOH) to a final concentration of 1000 µg/ml. Synthetic human Aβ1–40 fibrils (EZBioLab, Carmel, IN, USA) were prepared as described by Lockhart et al. (0.5 mg/ml, pH 7.4, 200 rpm at 37°C for 48 h) and were used as positive control at a final concentration of 10 µg/ml (Figure S8).
(§3) Nonspecific binding was determined in the presence of 3 µM unlabeled PiB (ABX, Radeberg, Germany) including 1 h preincubation. Each tissue sample was deployed on two 96-well cell culture plates (Greiner Bio-One, Frickenhausen, Germany) to a final reaction volume of 280 µl per well using 8-channel electronic pipettes (Mettler Toledo, Giessen, Germany) giving 24 octuples of data points per sample.
(§4) The bound and free fractions were seperated by vacuum filtration through 0.3% polyethyleneimine-pretreated GF/B glass filtermats (GE Healthcare/Whatman, Dassel, Germany) using a semi-automated Harvester 96 Mach II M (Tomtec, Hamden, CT, USA). A constant automated 5-cycle pulse-wash program (optimized for flow rate and volume) guaranteed stable harvesting with 1.2 ml PBE washing per well at 2 psi.
(§5) Filters were cut and incubated in Aquasafe300plus scintillator (Zinsser Analytic, Frankfurt, Germany) for 36 h before counting in a Wallac WinSpectral 1414 liquid scintillation counter (PerkinElmer, Rodgau, Germany).
(§6) The specific binding signal under these assay conditions was between 56% (human) and 91% (synthetic protein). Data were analyzed using GraphPad Prism version 5.0 d for Mac (GraphPad Software, La Jolla, CA, USA) to estimate the apparent dissociation constant (Kd), the maximal number of binding sites (Bmax) and the in vitro binding potential (BP) using the one-site and two-site global analysis models.
(§7) Division by Kd in nanomolar units directly results in BP.

[2] = system: mouse brain tissue homogenate (APP/PS1 hemi-forebrain); test: Radioligand saturation binding assay with [^3H]PiB, mouse brain homogenate
Method: as §1, §2, §3, §4, §5, §6, §7

[3] = system: APP/PS1 mouse brain; set-up: method as in PMID 16291932; details: very old hemizygous APP/PS1 animals; classical Scatchard analysis; cited from earlier work
[4] = system: human brain; set-up: method as in PMID 16291932; details: humans; cited from earlier work
[5] = system: Aβ plaques; test: Small-animal PET of mouse brain with [^11C]PiB, cerebellum as reference region; assay type: in vivo; details: for BPND (MRTM2, Ichise et al., 2003) mean ± SD: neocortex target, cerebellum reference; for PET BPND neocortex: [^3H]PiB/[^11C]PiB cocktail, 30 min scan
From the text: Most of the small-animal PET data was acquired with a microPET FOCUS F120 scanner (Siemens Medical Solutions, Malvern, USA). In the combined multi-modal experiment PET data for the four animals was acquired with a docked Siemens Inveon PET/CT system (Siemens Medical Solutions, Knoxville, USA), [66], [67].
After induction of anesthesia and placement of the catheter systems, the animals were placed with their heads in the center of the field of view and were fixed in the scanner in prone head first position (HFP). At the beginning of the PET scanning procedure, a 9 min transmission scan (^68Ge rod source, Focus F120) or CT scan (Inveon) was performed in all animals.
[^11C]PiB was given via the catheter system intravenously in a slow bolus, followed by flushing with isotonic saline solution such that the total applied volume was 0.22±0.06 ml. The amount of injected activity was controlled real-time with registered prompts such that they ranged between 150000 to 200000 at the end of [^11C]PiB application, ensuring a dead time <5% at 30 min p.i.. The radioactivity in the syringe was measured immediately before and after injection with a Capintec CRC 15R (Capintec Inc, NJ, USA) dose calibrator. The time between measurements was 2 to 3 min.
Dynamic data acquisition was performed in 3D listmode for 30 or 60 min starting immediately with injection of the tracer. The emission data were normalized and corrected for decay and dead time. The resulting sinograms were reconstructed with FBP (filtered back-projection using a ramp filter with a cut-off at the Nyquist frequency) into 2, 3, 6, 12, 60 and 120 frames of equal length used for motion correction, ratio measurements and image production and 52 frames (24×10 s, 12×30 s, 10×120 s, 6×300 s) and 162 frames (120×1 s, 24×10 s, 8×30 s, 10×300 s) for time-activity-curve (TAC) generation. The image volume consisted of 128×128×95 voxels, with a size of 0.866×0.866×0.796 mm^3 per voxel for the Focus F120 scanner and 128×128×159 voxels, with a size of 0.776×0.776×0.796 mm^3 per voxel for the Inveon scanner.
To assess varying PiB retention of individual animals within the study collective and to verify the consistency of results, three quantification methods were used similar to Maeada et al.. First, [^11C]PiB uptake in the target region was divided by [^11C]PiB uptake in the cerebellum as measured in a static 10 min-frame (20–30 min). Second, the tissue ratio methods as proposed by Ito et al. were calculated. Third, the multilinear reference tissue model 2 (MRTM2, [45]) was fitted to cortex time-activity curves (TACs) (merged neocortex) after reduction of parameters by estimating individual efflux rate constants for [^11C]PiB from the reference region (k2′) with the MRTM [45] and four regional cortical time-activity curves.
Parametric images of [^11C]PiB retention (BPND maps (MRTM2)) were generated for four representative mice (Figure 2 and S1). For all analyses, the cerebellum was used as the reference region. To quantify the dynamic data, TACs with high initial time resolution (162 frames: 120×1 s, 24×10 s, 8×30 s, 10×300 s) were used (Figure 1).
Then, the radioactivity of the whole animal was measured in a Capintec dose calibrator, the animal killed by decapitation, the whole brain taken out and blood drawn for biodistribution and radioactivity measurement. One half of the brain was dissected for regional brain biodistribution (olfactory system, telencephalon, cerebellum and remaining brain structures (diencephalon, midbrain)) and deep-frozen immediately after gamma counting for later ELISA analysis of soluble and insoluble Aβx–40 and Aβx–42. […]

## CNc1ccc(-c2nc3ccc(O)cc3s2)cc1 [[^3H]PiB]
[1]; huAD-0 (mild human AD, Cerad-0, Braak II), single binding site model
  in vitro binding potential (BP): ~0
[1]; huAD-C (severe human AD, Cerad-C, Braak V), single binding site model
  in vitro binding potential (BP): 38 and 38.2±4.7 and 38.2
[1]; huAD-C homogenate
  tracer concentration at which saturation binding was reached: around 8 nM
[1]; huAD-C homogenate, single binding site model
  Bmax: 200 ± 12 fmol/mg
[1]; huAD-C homogenate, single binding site model, read-out: Kd
  Kd: 5.2 ± 0.9 nM
[1]; huAD-C, two site binding model
  Bmax of the high-affinity component: 156.7 ± 7.3 fmol/mg
[1]; huAD-C, two site binding model, read-out: Kd of the high-affinity component
  Kd: 3.4 ± 1.4 nM
[1]; huCTL (human control brain, Cerad-0, Braak I), single binding site model
  in vitro binding potential (BP): ~0
[2]; mouse control brain (msCTL), total binding not different to nonspecific binding
  in vitro binding potential (BP): ~0
[2]; tg-old mouse brain tissue, single binding site model
  in vitro binding potential (BP): 11.9±0.9 and 11.9
[2]; tgtg-old mouse brain tissue, single binding site model
  in vitro binding potential (BP): 69 and 69.2±2.7 and 69.2
[2]; tgtg-old tissue, two site binding model
  Bmax of the high-affinity component: 289.3 ± 123.9 fmol/mg
[2]; tgtg-old tissue, two site binding model, read-out: Kd of the high-affinity component
  Kd: 5.7 ± 4.1 nM
[2]; tgtg-young mouse brain tissue, single binding site model
  in vitro binding potential (BP): 14.3±0.9 and 14.3
[3]
  BP of the high-affinity component: 78
[4]
  BP of high-affinity binding sites: 636

## [11CH3]Nc1ccc(-c2nc3ccc(O)cc3s2)cc1 [[^11C]PiB, N-[^11C-methyl]-6-OH-BTA-1]
[5]; ctl-old (N = 5)
  BPND (MRTM2, Ichise et al., 2003) mean ± SD: -0.08 ± 0.01
[5]; individual animals AD1, AD2 (tgtg-young, 9 months)
  PET BPND neocortex: 0.06
[5]; individual animals CTL1, CTL2 (ctl-young)
  PET BPND neocortex: −0.06 and −0.07
[5]; tg-old (N = 5)
  BPND (MRTM2, Ichise et al., 2003) mean ± SD: 0.28 ± 0.06
[5]; tgtg-old (N = 7)
  BPND (MRTM2, Ichise et al., 2003) mean ± SD: 0.51 ± 0.13
[5]; tgtg-young (N = 5)
  BPND (MRTM2, Ichise et al., 2003) mean ± SD: 0.12 ± 0.04
